In patent US11447485B2, “Class of bifunctional compounds with quanternary ammonium salt structure” (Beijing Showby Pharmaceutical Co., Ltd., priority 2016, dated 2022):
Read-outs that look alike come from different tables or passages of the source.

What was measured:
[1] = system: tracheal smooth muscle of guinea pig; test: Relaxation of CCh-induced constriction of isolated guinea pig tracheal smooth muscle (Experimental Example 1); conditions: for EC50: Cavia porcellus, read-out: EC50 (μM) ± SD
Description: The upper end was connected with a muscle tension transducer, and the specimen was given a resting tension of 1.0 g. Muscle tension changes were recorded, nutrient solution was changed every 20 min, and the experiment was started after 60 min of equilibrium.
Administration Method: After the trachea flake were stabilized, 3×10^−6 mol/L CCh was added to the bath. […] Diastolic condition of the trachea flake was observed. If no response occurred (below the threshold concentration), the next dosage was continued to be added in the order. If any response occurred, the next dosage was added until its diastolic platform was reached. The above operation was repeated until the shrink curve reached the minimum. Finally, 10^−6 mol/L isoproterenol was added to establish maximum relaxation, and the curve was recorded.
Statistical Methods: Statistics was performed using the Sigma Stat statistical software package, the data was analyzed by using the variance analysis. Student-Newman-Keuls (SNK) test was used in comparison among multiple sample averages number. The statistical test level was α=0.05 (bilateral).

[2] = biological target: T1, human recombinant β2 adrenoceptor (Homo sapiens, UniProt P07550); test: cell-based; type: cell-based; conditions: EC50 (β1)/EC50 (β2)
T1 construct: expressed in transfected cells
T1 sequence (P07550 whole entry): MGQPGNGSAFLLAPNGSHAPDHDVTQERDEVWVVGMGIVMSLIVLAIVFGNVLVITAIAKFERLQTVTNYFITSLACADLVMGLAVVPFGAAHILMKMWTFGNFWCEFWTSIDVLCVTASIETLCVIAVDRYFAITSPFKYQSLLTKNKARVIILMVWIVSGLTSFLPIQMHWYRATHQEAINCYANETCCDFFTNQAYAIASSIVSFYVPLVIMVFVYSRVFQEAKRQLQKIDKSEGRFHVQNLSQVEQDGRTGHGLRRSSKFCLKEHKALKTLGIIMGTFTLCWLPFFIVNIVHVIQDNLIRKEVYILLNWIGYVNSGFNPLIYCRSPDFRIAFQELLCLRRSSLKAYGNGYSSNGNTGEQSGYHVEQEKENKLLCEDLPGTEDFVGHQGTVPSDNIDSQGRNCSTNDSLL

| SMILES | Time for eliminating inhibition effect (min) ([1]; CCh 3 × 10^−6 mol/L, in vitro) | EC50 [1] [µM] | sel (β1/β2) [2] | Onset time (min) ± SD ([1]; CCh 3 × 10^−6 mol/L, in vitro) [min] | Time for eliminating inhibition effect ([1]; CCh 3 × 10^−6 mol/L, in vitro) [min] | Time for eliminating inhibition effect (min) ([1]; CCh 3 × 10^−6 mol/L, in vitro, listed as ipratropium bromide) | EC50 ([1]; constriction induced by CCh 3 × 10^−6 mol/L, in vitro) [µM] |
| --- | --- | --- | --- | --- | --- | --- | --- |
| O=c1ccc2c([C@@H](O)CNCCC[N+]34CCC(CC3)[C@@H](OC[C@@](O)(c3ccccc3)C3CCCC3)C4)ccc(O)c2[nH]1 [Compound 2, (R)-(−)-3-[(R)-2-hydroxy-2-cyclopentyl-2-phenyl]ethoxy-1-(3-{(R)-[2-hydroxy-2-(8-hydroxy-2-oxo-1,2-dihydroquinolin-5-yl)]ethylamino}propyl)-1-azabicyclo[2,2,2]octylonium bromide] | more than 300 min | 0.756 ± 0.26 | 7.8 | – | – | – | – |
| O=CNc1cc([C@@H](O)CNCCCC[N+]23CCC(CC2)[C@@H](OC[C@@](O)(c2ccccc2)C2CCCC2)C3)ccc1O [Compound 4, (R)-(−)-3-[(R)-2-hydroxy-2-cyclopentyl-2-phenyl]ethoxy-1-(4-{(R)-[2-hydroxy-2-(3-formamido-4-hydroxy)phenyl]ethylamino}butyl-1-azabicyclo[2,2,2]octylonium bromide] | more than 300 min | 0.0358 ± 0.011 | 36.8 | 6.23 ± 0.23 | – | – | – |
| O=CNc1cc([C@@H](O)CNCCCCOCC[N+]23CCC(CC2)[C@@H](OC[C@@](O)(c2ccccc2)C2CCCC2)C3)ccc1O [Compound 25, (R)-(−)-3-[(R)-2-hydroxy-2-cyclopentyl-2-phenyl]ethoxy-1-[2-(4-{(R)-[2-hydroxy-2-(3-formamido-4-hydroxy)phenyl]ethylamino}butoxy)ethyl]-1-azabicyclo[2,2,2]octylonium bromide] | more than 300 min | 0.822 ± 0.27 | 30.8 | 6.86 ± 0.22 | – | – | – |
| O=C1COc2c(cc(O)cc2C(O)CNCCCCOCCCCC[N+]23CCC(CC2)C(OCC(O)(c2ccccc2)C2CCCC2)C3)N1 [Compound 26, (R)-(−)-3-[(R)-2-hydroxy-2-cyclopentyl-2-phenyl]ethoxy-1-[5-(4-{(R)-[2-hydroxy-2-(6-hydroxy-2H-1,4-benzoxazin-3(4H)-one-8-yl)]ethylamino}butoxy)pentyl]-1-azabicyclo[2,2,2]octylonium bromide] | more than 300 min | 0.087 ± 0.021 | 18.8 | 6.56 ± 0.65 | – | – | – |
| OCc1cc(C(O)CNCCCCOCCCC[N+]23CCC(CC2)C(OCC(O)(c2ccccc2)C2CCCC2)C3)ccc1O [Compound 27, (R)-(−)-3-[(R)-2-hydroxy-2-cyclopentyl-2-phenyl]ethoxy-1-[4-(4-{(R)-[2-(3-hydroxymethyl-4-hydroxy)phenyl-2-hydroxy]ethylamino}butoxy)butyl-1-azabicyclo[2,2,2]octylonium bromide] | more than 300 min | 0.152 ± 0.086 | 78.9 | 5.54 ± 0.43 | – | – | – |
| OCc1cc(C(O)CNCCOCCOCCOCC[N+]23CCC(CC2)C(OCC(O)(c2ccccc2)C2CCCC2)C3)ccc1O [Compound 45, (R)-(−)-3-[(R)-2-hydroxy-2-cyclopentyl-2-phenyl]ethoxy-1-(2-{2-[2-(2-{(R)-[2-(3-hydroxymethyl-4-hydroxy)phenyl-2-hydroxy]ethylamino}ethoxy)ethoxy]ethoxy}ethyl)-1-azabicyclo[2,2,2]octylonium bromide] | more than 300 min | 0.0278 ± 0.0091 | 120.3 | 6.39 ± 0.56 | – | – | – |
| O=CNc1cc(C(O)CNCCOCCOCC[N+]23CCC(CC2)C(OCC(O)(c2ccccc2)C2CCCC2)C3)ccc1O [Compound 46, (R)-(−)-3-[(R)-2-hydroxy-2-cyclopentyl-2-phenyl]ethoxy-1-{2-[2-(2-{(R)-[2-hydroxy-2-(3-formamido-4-hydroxy)phenyl]ethylamino}ethoxy)ethoxy]ethyl}-1-azabicyclo[2,2,2]octylonium chloride] | more than 300 min | 0.136 ± 0.068 | 68.9 | 6.75 ± 0.33 | – | – | – |
| O=c1ccc2c([C@@H](O)CNCCOCCOCC[N+]34CCC(CC3)[C@@H](OC[C@@](O)(c3ccccc3)C3CCCC3)C4)ccc(O)c2[nH]1.[Cl-] [Compound 50] | more than 300 min | 0.0135 ± 0.0092 | 56.9 | 6.76 ± 0.32 | – | – | – |
| OCc1cc([C@@H](O)CNCCc2ccc(OCC[N+]34CCC(CC3)[C@@H](OC[C@@](O)(c3ccccc3)C3CCCC3)C4)cc2)ccc1O [Compound 57, (R)-(−)-3-[(R)-2-hydroxy-2-cyclopentyl-2-phenyl)]ethoxy-1-{2-[4-(2-{[(R)-[2-(3-hydroxymethyl-4-hydroxy)phenyl-2-hydroxy]ethylamino}ethyl)phenoxy]ethyl}-1-azabicyclo[2,2,2]octylonium bromide] | more than 300 min | 0.0265 ± 0.016 | 68.8 | 6.03 ± 0.18 | – | – | – |
| O=c1ccc2c([C@@H](O)CNCc3ccc(OCCC[N+]45CCC(CC4)[C@@H](OC[C@@](O)(c4ccccc4)C4CCCC4)C5)cc3)ccc(O)c2[nH]1 [Compound 58, (R)-(−)-3-[(R)-2-hydroxy-2-cyclopentyl-2-phenyl]ethoxy-1-{3-[4-(1-{(R)-[2-hydroxy-2-(8-hydroxy-2-oxo-1,2-dihydroquinolin-5-yl)]ethylamino}methyl)phenoxy]propyl}-1-azabicyclo[2,2,2]octylonium bromide] | more than 300 min | 0.0131 ± 0.0088 | 89.8 | 5.56 ± 0.24 | – | – | – |
| CC(C)(Cc1ccc(OCC[N+]23CCC(CC2)[C@@H](OC[C@@](O)(c2ccccc2)C2CCCC2)C3)cc1)NC[C@H](O)c1cc(O)cc2c1OCC(=O)N2 [Compound 60, (R)-(−)-3-[(R)-2-hydroxy-2-cyclopentyl-2-phenyl]ethoxy-1-{2-[4-(2-{(R)[-2-hydroxy-2-(6-hydroxy-2H-1,4-benzoxazin-3(4H)-one-8-yl)]ethylamino}isobutyl)phenoxy]ethyl}-1-azabicyclo[2,2,2]octylonium bromide] | more than 300 min | 0.0523 ± 0.018 | 12.3 | 6.59 ± 0.43 | – | – | – |
| CCC(NC[C@H](O)c1ccc(O)c2[nH]c(=O)ccc12)c1ccc(OCCC[N+]23CCC(CC2)[C@@H](OC[C@@](O)(c2ccccc2)C2CCCC2)C3)cc1 (stereo partly drawn) [Compound 62, (R)-(−)-3-[(R)-2-hydroxy-2-cyclopentyl-2-phenyl]ethoxy-1-{3-[4-(1-{(R)-[2-hydroxy-2-(8-hydroxy-2-oxo-1,2-dihydroquinolin-5-yl)]ethylamino}propylidene)phenoxy]propyl}-1-azabicyclo[2,2,2]octylonium bromide] | more than 300 min | 0.0351 ± 0.01 | 126.7 | 7.02 ± 0.22 | – | – | – |
| CC(C)(NC[C@H](O)c1ccc(O)c(CO)c1)c1ccc(OCCC[N+]23CCC(CC2)[C@@H](OC[C@@](O)(c2ccccc2)C2CCCC2)C3)cc1.[Br-] [Compound 71] | more than 300 min | 0.019 ± 0.0061 | 468.2 | 6.92 ± 0.26 | – | – | – |
| CC(Cc1ccc(OCC[N+]23CCC(CC2)[C@@H](OC[C@@](O)(c2ccccc2)C2CCCC2)C3)cc1)NC[C@H](O)c1ccc(O)c(CO)c1.[Br-] (stereo partly drawn) [Compound 75] | more than 300 min | 0.176 ± 0.031 | 56.8 | 6.38 ± 0.35 | – | – | – |
| O=c1ccc2c([C@@H](O)CNCCc3ccc(OCCC[N+]45CCC(CC4)[C@@H](OC[C@@](O)(c4ccc(Cl)cc4)C4CCCC4)C5)cc3)ccc(O)c2[nH]1.[Br-] [Compound 78] | more than 300 min | 0.0137 ± 0.0078 | 108.6 | 6.48 ± 0.38 | – | – | – |
| CC(C)(NC[C@H](O)c1ccc(O)c2[nH]c(=O)ccc12)c1ccc(OCCC[N+]23CCC(CC2)[C@@H](OC[C@@](O)(c2ccccc2)C2CCCC2)C3)cc1 [Compound 84] | more than 300 min | 0.0251 ± 0.0086 | 238.8 | 6.78 ± 0.18 | – | – | – |
| CCC(NC[C@H](O)c1ccc(O)c(NC=O)c1)c1ccc(OCCC[N+]23CCC(CC2)[C@@H](OC[C@@](O)(c2ccccc2)C2CCCC2)C3)cc1.[Br-] (stereo partly drawn) [Compound 97] | more than 300 min | 0.0167 ± 0.0062 | 56.7 | 6.36 ± 0.22 | – | – | – |
| O=C1COc2c(cc(O)cc2[C@@H](O)CNCc2ccc(OCCC[N+]34CCC(CC3)[C@@H](OC[C@@](O)(c3ccccc3)C3CCCC3)C4)cc2)N1 [Compound 102] | more than 300 min | 0.0371 ± 0.019 | 102.6 | 5.78 ± 0.23 | – | – | – |
| CC(C)[N+]1(C)[C@@H]2CC[C@H]1C[C@@H](OC(=O)C(CO)c1ccccc1)C2 (stereo partly drawn) [Ipratropium bromide, ipratropium bromide, reference compound] | – | – | – | 6.82 ± 0.28 | 185 | short duration of action | 0.0361 ± 0.0046 |
